{"source": "paper PMC3421038", "about": "(The Pediatric infectious disease journal, 2012)", "key": {"[1]": {"conditions": "human, in vivo, iv, 6 mg/kg"}, "[2]": {"system": "hepatic cytochrome P450 enzyme system", "conditions": "cited from earlier work"}, "[3]": {"conditions": "human, in vivo; cited from earlier work"}, "[4]": {"conditions": "human, in vivo, cited from earlier work"}, "[5]": {"conditions": "in vivo, cited from earlier work"}, "[6]": {"conditions": "in vivo"}}, "note": "Where two headings read alike, the source gives them in different places.", "data": [{"smiles": "CCCCCCCCCC(=O)N[C@@H](Cc1c[nH]c2ccccc12)C(=O)N[C@H](CC(N)=O)C(=O)N[C@@H](CC(=O)O)C(=O)N[C@@H]1C(=O)NCC(=O)N[C@@H](CCCN)C(=O)N[C@@H](CC(=O)O)C(=O)N[C@H](C)C(=O)N[C@@H](CC(=O)O)C(=O)NCC(=O)N[C@H](CO)C(=O)N[C@@H]([C@H](C)CC(=O)O)C(=O)N[C@@H](CC(=O)c2ccccc2N)C(=O)O[C@@H]1C", "note": "[daptomycin]", "values": [{"measurement": "AUC(0-t)", "setting": "[1]", "value": 262, "unit": "µg·h/mL"}, {"measurement": "Cmax", "setting": "[1]", "value": 25500, "unit": "ng/mL"}, {"measurement": "clearance", "setting": "[1]", "value": 0.35, "unit": "mL/min/kg"}, {"measurement": "half-life", "setting": "[1]", "value": 6.2, "unit": "h"}, {"measurement": "effect on the hepatic cytochrome P450 enzyme system", "setting": "[2]", "value": "does not have an effect"}, {"measurement": "patients with cellulitis as serious adverse event", "setting": "[3]", "value": 1.3, "unit": "%"}, {"measurement": "patients with elevation of CPK concentrations", "setting": "[3]", "value": 2.1, "unit": "%"}, {"measurement": "renal toxicity", "setting": "[3]", "value": "does not cause renal toxicity"}, {"measurement": "mean exposure (AUCinf)", "setting": "[4]; 8 mg/kg", "value": 429, "unit": "µg·h/mL"}, {"measurement": "mean exposure (AUCinf)", "setting": "[4]; 10 mg/kg", "value": 550, "unit": "µg·h/mL"}, {"measurement": "mean exposure (AUCinf)", "setting": "[5]; 4 mg/kg", "value": 417, "unit": "µg·h/mL"}, {"measurement": "administered dose excreted within 24 hours as intact drug", "setting": "[5]", "value": 50, "unit": "%"}, {"measurement": "kinetics (dose linearity)", "setting": "[5]", "value": "linear kinetics"}, {"measurement": "CPK value after the dose of daptomycin", "setting": "[6]", "value": 86, "unit": "IU/L"}, {"measurement": "CPK value before the dose of daptomycin", "setting": "[6]", "value": 132, "unit": "IU/L"}, {"measurement": "calcium level after the daptomycin dose", "setting": "[6]", "value": 9.7}, {"measurement": "calcium level before the daptomycin dose", "setting": "[6]", "value": 9.3}, {"measurement": "respiratory rate, temperature, heart rate, or mean blood pressure during the daptomycin infusion", "setting": "[6]; 6 mg/kg", "value": "No significant changes"}, {"measurement": "adverse events classified as serious adverse events", "setting": "[6]; iv, 6 mg/kg", "value": "Five"}, {"measurement": "adverse events related to study drug", "setting": "[6]; iv, 6 mg/kg", "value": "None"}, {"measurement": "adverse events reported (number of events)", "setting": "[6]; iv, 6 mg/kg", "value": 34}, {"measurement": "subjects with adverse events", "setting": "[6]; iv, 6 mg/kg", "value": 55, "unit": "%"}]}]}
